Experimental data from ChEMBL document CHEMBL5725788, “Tricyclic heterocyclic compounds as phosphoinositide 3-kinase inhibitors” (2017).

Tests used:
[1] = target: Phosphatidylinositol 4,5-bisphosphate 3-kinase catalytic subunit beta isoform (Homo sapiens, UniProt P42338); assay: (§1) Biochemical Assay: PI3K Isoform using biochemical assay.
[2] = target: Phosphatidylinositol 4,5-bisphosphate 3-kinase catalytic subunit gamma isoform (Homo sapiens, UniProt P48736); assay: as §1
[3] = target: Phosphatidylinositol 4,5-bisphosphate 3-kinase catalytic subunit alpha isoform (Homo sapiens, UniProt P42336); assay: as §1
Phosphatidylinositol 4,5-bisphosphate 3-kinase catalytic subunit alpha isoform, sequence (P42336 whole entry, canonical isoform): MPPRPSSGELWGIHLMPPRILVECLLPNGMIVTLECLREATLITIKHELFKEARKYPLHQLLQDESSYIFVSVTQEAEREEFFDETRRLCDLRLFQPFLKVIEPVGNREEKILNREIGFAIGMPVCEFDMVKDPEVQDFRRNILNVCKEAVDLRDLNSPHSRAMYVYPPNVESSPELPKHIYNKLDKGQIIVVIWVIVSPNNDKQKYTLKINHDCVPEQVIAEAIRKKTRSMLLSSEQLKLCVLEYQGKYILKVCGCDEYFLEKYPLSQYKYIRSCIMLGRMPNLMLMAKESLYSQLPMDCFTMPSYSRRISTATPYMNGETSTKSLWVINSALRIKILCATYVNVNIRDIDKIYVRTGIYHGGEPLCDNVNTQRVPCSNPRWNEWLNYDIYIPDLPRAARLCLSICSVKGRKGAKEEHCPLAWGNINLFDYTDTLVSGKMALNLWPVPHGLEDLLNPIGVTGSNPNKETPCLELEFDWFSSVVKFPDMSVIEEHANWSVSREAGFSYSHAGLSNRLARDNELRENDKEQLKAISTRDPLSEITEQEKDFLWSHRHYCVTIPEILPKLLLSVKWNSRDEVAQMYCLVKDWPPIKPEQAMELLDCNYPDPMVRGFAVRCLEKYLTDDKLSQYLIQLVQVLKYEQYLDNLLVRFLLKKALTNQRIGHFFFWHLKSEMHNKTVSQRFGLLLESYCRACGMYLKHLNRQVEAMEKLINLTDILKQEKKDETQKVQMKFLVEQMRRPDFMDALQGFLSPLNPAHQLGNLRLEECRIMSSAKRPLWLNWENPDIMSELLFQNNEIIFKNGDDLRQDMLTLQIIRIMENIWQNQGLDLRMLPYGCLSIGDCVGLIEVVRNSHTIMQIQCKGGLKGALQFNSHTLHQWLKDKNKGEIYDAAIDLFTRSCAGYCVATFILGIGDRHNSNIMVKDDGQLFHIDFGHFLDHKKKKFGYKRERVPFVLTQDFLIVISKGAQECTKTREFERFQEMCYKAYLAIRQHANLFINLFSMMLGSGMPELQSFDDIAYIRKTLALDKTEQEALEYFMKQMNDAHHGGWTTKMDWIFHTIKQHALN

[4] = target: T1, Phosphatidylinositol 4,5-bisphosphate 3-kinase catalytic subunit delta isoform (Homo sapiens, UniProt O00329); assay: as §1
T1 sequence (O00329 whole entry): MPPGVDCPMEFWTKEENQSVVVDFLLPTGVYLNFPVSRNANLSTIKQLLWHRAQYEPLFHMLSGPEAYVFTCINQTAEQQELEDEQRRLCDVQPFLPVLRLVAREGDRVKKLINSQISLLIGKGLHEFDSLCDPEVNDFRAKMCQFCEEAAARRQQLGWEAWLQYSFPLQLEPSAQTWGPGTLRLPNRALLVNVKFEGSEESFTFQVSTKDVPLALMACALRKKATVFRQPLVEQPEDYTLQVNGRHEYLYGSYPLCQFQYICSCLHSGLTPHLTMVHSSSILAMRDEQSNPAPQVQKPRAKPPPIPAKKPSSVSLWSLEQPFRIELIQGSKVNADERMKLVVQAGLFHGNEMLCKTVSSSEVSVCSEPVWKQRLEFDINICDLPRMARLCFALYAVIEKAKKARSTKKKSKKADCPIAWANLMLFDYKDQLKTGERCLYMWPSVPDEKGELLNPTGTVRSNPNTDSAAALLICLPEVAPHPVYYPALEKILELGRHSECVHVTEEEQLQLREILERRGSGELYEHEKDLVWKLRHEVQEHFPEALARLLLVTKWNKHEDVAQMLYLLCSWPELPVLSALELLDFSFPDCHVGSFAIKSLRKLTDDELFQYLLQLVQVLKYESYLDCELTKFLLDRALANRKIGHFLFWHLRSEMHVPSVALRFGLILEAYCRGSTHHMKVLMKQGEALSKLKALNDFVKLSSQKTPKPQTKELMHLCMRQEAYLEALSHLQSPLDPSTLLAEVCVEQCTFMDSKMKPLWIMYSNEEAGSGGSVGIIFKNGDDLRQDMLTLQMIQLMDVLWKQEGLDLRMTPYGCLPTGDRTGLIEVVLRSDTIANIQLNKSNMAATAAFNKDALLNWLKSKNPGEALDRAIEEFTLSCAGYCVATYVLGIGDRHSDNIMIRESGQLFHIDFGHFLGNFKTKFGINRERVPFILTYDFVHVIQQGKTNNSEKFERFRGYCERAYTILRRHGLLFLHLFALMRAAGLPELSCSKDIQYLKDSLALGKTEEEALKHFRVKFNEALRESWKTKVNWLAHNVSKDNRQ

Phosphatidylinositol 4,5-bisphosphate 3-kinase catalytic subunit gamma isoform, sequence (P48736 whole entry, canonical isoform): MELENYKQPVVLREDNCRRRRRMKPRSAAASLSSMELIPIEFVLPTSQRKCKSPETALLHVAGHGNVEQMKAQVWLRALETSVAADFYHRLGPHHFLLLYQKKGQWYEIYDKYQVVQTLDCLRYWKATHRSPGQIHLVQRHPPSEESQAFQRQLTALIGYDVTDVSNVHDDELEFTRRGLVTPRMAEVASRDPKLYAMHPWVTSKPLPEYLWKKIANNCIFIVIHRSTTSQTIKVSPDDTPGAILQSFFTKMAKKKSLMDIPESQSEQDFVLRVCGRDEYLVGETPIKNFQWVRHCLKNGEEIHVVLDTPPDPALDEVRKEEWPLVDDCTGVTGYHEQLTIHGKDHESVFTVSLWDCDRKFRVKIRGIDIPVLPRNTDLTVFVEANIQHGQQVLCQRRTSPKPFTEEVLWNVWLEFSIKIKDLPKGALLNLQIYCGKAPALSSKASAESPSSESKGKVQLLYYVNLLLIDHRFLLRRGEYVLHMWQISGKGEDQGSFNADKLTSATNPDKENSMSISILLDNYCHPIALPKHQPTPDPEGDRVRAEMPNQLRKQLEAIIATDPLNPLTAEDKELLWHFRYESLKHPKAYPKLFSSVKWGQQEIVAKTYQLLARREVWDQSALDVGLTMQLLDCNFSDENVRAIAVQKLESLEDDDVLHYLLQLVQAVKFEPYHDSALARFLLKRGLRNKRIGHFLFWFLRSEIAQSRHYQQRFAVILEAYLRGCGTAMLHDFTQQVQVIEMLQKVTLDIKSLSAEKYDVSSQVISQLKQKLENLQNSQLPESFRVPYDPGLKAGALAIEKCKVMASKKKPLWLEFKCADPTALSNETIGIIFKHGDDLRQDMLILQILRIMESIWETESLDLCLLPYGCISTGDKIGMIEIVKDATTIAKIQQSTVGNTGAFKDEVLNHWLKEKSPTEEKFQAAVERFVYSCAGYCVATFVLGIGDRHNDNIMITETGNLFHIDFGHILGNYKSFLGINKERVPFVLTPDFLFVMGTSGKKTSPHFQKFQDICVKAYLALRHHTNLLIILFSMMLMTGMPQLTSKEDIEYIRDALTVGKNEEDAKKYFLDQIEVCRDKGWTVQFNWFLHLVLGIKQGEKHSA
Phosphatidylinositol 4,5-bisphosphate 3-kinase catalytic subunit beta isoform, sequence (P42338 whole entry, canonical isoform): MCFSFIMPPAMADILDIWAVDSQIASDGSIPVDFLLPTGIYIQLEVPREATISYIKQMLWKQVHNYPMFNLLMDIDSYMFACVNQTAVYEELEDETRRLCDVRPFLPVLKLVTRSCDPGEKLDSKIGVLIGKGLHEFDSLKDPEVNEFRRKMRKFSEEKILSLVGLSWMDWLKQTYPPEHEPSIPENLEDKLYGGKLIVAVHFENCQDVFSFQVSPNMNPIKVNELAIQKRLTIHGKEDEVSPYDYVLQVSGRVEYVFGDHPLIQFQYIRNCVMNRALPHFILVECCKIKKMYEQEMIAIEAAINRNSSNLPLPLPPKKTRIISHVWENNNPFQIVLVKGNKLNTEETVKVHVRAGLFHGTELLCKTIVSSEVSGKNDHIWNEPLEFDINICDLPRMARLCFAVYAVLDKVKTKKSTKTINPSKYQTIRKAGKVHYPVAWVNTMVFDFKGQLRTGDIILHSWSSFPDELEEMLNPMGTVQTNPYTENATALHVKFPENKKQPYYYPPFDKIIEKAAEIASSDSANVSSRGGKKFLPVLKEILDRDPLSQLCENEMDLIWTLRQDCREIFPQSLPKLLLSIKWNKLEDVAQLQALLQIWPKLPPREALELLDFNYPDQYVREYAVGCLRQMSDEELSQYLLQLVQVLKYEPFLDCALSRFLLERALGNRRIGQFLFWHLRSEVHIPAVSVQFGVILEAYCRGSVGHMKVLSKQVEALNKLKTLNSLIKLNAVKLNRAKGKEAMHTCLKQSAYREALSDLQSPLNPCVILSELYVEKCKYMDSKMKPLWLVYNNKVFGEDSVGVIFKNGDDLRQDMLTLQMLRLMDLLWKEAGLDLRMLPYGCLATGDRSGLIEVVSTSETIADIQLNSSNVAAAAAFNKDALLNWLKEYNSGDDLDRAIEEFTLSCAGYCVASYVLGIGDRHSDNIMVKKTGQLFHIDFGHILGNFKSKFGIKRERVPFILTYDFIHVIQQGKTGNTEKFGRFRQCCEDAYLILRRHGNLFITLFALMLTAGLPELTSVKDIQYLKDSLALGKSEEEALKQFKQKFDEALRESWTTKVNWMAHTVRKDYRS

Structure (SMILES): c1cc(-c2nc(N3CCOCC3)c3oc4ncc(CN5CCCCC5)cc4c3n2)c2cc[nH]c2c1
- IC50 [1]: 503 nM
- IC50 [2]: 4950 nM
- IC50 [3]: 508 nM
- IC50 [4]: 10 nM
